The source of these data is paper PMC9029695, “5-Aryl-1,3,4-oxadiazol-2-amines Decorated with Long Alkyl and Their Analogues: Synthesis, Acetyl- and Butyrylcholinesterase Inhibition and Docking Study” (Pharmaceuticals, 2022).

Test [1] concerns the target T1, AChE from electric eel (EeAChE) (Electrophorus electricus, UniProt O42275).
T1 construct: purchased Merck (Prague, Czech Republic)
The test is described as follows: Inhibition of AChE, modified Ellman's spectrophotometric method. In kind it is biochemical, electric eel (Electrophorus electricus L.). An excerpt: (§1) The heterocycles 3 were screened for their ability to interfere with the function of AChE from electric eel (EeAChE) and BChE from equine serum (EqBChE) using Ellman’s method (Table 1). Their activities are expressed as the concentration producing 50% inhibition of enzymatic activity (IC50). In addition, we calculated selectivity indexes (SI) that quantify the selectivity for AChE as more inhibited cholinesterase. SI is the ratio of IC50 for BChE/IC50 for AChE.
(§2) Enzyme inhibition activity of 3 quantified as IC50 values was determined spectrophotometrically using modified Ellman’s method. […] The enzyme activity is measured indirectly by determination of 5-mercapto-2-nitrobenzoic acid ion formed after reaction of the thiol reagent 5,5′-disulfanediyl-bis(2-nitrobenzoic acid) (DTNB) and thiocholine, a product of acetylthiocholine (ATCh) and butyrylthiocholine (BTCh) as substrates for hydrolysis by AChE and BChE, respectively.
(§3) The enzyme activity in final reaction mixture (2000 µL) was 0.2 U/mL, concentration of ATCh (or BTCh) 40 µM and concentration of DTNB 100 µM for all reactions. The compounds 3 were dissolved in DMSO and then diluted in demineralized water (conductivity 3 μS, equipment supplier BKG Water Treatment, Hradec Králové, Czech Republic) to the concentration of 1000 µM. […] The final concentration of DMSO was 0.2%. All experiments were carried in triplicates. The average values of reaction rate (v0-uninhibited reaction, vi-inhibited reaction) were used for construction of the dependence v0/vi vs. concentration of inhibitor. From obtained equation of regression curve, IC50 values were calculated.
(§4) Acetylcholinesterase was used from electric eel (Electrophorus electricus L.; EeAChE) and butyrylcholinesterase originated from equine serum (EqBChE).

Test [2] deals with T2, BChE from equine serum (EqBChE) (Equus caballus, UniProt P81908).
T2 construct: butyrylcholinesterase originated from equine serum (EqBChE); purchased Merck (Prague, Czech Republic); host or cells: equine serum
The test is described as follows: Inhibition of BChE, modified Ellman's spectrophotometric method. It is filed as biochemical.
Source text: as §1, §2, §3, §4

Test [3] addresses T3, AChE (Electrophorus electricus, UniProt O42275).
T3 construct: purchased Merck (Prague, Czech Republic)
The test is described as follows: Reversibility of AChE inhibition (residual enzyme activity over time). It is filed as biochemical, electric eel (Electrophorus electricus L.). An excerpt:
Based on the promising in vitro inhibition of AChE by thiadiazole 3t, we investigated the derivative to distinguish between reversible, pseudo-irreversible and irreversible inhibition on the basis of changes in enzyme activity over time in the presence of the inhibitor. In reversible inhibition, the activity of enzyme goes down immediately, but the inhibitory molecule is bound to the target for a short period of time, after which the inhibitor-enzyme complex dissociates, and enzyme activity is restored. In pseudo-irreversible inhibition, the inhibitor binds covalently to the enzyme, but the bond is broken down more slowly, delaying the return of enzyme activity to its initial state. In the case of irreversible inhibitors, the reaction between the enzyme and the inhibitor is not rapid because there is a time-dependent drop of activity. Irreversible inhibitors decrease enzyme activity gradually. […]
Three different inhibitor concentrations (1, 10, and 100 µM) were chosen. […] At given times (5, 10, 15, 20, 30, 40, 50, 60, 260, and 1450 min), DTNB and ATCh were added to the sample taken from the reaction mixture, mixed rapidly, and the absorbance was measured to quantify the enzyme activity. Based on knowledge of the enzyme activity in the absence of the inhibitor (i.e., 100% activity), the percentages of residual enzyme activity in presence of inhibitor were calculated. […]

Test [4] addresses T3, AChE. The test is described as follows: Type of AChE inhibition (Lineweaver–Burk plot). It is filed as biochemical, electric eel (Electrophorus electricus L.). The conditions noted are these: ATCh 20–80 µM, inhibitor 10, 25, 35 and 50 µM. An excerpt:
We also valuated the type of inhibition of 3t using AChE. In general, the reversible inhibitors can be classified as competitive, non-competitive, uncompetitive, or mixed type. The type of inhibition could be distinguished using the Lineweaver–Burk plot and the corresponding comparison of two key kinetic parameters: maximum velocity (Vm) and Michaelis constant (KM) of the inhibited and uninhibited reactions. Based on the changes of these parameters and intercept of the lines in Lineweaver–Burk plot, the type of inhibition is uncovered.
The inhibition is associated with a change in both KM and Vm and also their ratio is different compared to the uninhibited reaction. In the Lineweaver–Burk plot, the intersection of the lines is in quadrant III but not on axis.
The procedure was analogous to the determination of IC50. The enzyme activity in the final reaction mixture (2000 µL) was 0.2 U/mL, concentration of ATCh 20–80 µM and concentration of DTNB was 100 µM. For each of the substrate concentrations, four different concentrations of the inhibitor were used (10, 25, 35 and 50 µM). The dependence of absorbance vs. time was observed and the reaction rate was calculated. […] From obtained equations of regression curves in Lineweaver–Burk plot, the values of Michaelis constant (KM) and maximum velocity (Vm) were calculated. […]

T1 sequence (O42275 24-633): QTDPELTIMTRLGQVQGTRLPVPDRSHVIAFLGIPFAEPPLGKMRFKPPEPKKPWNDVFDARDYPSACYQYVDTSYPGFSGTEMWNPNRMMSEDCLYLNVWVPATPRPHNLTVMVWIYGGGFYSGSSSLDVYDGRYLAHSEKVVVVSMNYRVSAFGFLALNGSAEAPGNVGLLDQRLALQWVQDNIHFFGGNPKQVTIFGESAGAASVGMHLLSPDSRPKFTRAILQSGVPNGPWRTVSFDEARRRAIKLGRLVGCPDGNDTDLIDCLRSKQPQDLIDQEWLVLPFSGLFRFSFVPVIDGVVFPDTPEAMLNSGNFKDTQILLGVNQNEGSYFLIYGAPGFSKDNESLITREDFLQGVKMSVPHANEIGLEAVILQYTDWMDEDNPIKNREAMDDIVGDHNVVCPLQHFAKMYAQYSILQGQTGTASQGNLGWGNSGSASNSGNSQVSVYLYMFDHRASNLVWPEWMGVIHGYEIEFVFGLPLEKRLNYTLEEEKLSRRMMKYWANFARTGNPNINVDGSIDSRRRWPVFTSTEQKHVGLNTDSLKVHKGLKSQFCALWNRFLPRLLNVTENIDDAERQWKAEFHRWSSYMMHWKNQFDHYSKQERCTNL
T3 sequence (O42275 24-633): as above
T2 sequence (P81908 whole entry): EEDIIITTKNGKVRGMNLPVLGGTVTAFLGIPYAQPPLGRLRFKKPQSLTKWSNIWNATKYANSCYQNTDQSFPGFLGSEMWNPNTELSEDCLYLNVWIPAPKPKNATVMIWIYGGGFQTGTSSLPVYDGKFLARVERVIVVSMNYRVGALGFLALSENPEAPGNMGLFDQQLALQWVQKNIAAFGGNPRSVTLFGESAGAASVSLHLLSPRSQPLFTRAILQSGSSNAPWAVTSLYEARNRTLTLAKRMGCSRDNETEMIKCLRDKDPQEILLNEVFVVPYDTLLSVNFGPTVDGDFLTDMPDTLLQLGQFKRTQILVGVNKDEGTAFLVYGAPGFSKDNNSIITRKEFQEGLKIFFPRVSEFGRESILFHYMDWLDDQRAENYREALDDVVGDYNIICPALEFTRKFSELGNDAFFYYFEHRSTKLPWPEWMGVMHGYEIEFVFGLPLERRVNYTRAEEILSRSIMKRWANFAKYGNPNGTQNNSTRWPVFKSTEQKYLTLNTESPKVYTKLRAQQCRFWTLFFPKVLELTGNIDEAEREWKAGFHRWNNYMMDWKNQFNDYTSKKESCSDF

One may read the IC50 as the concentration at which inhibition is half-maximal. A low value points to greater potency in that assay. Regarding `CCCCCCCCCCCCNc1nnc(-c2ccncc2)s1` [3t, N-Dodecyl-5-(pyridin-4-yl)-1,3,4-thiadiazol-2-amine], the concentration for half-maximal inhibition (IC50) turned out to be 12.78 ± 0.03 µM in test [1] (EeAChE, Ellman's method, mean ± SD, n = three independent experiments) and 53.1 ± 3.68 µM in test [2] (EqBChE, Ellman's method, mean ± SD, n = three independent experiments). In addition, the “fold higher in vitro activity (IC50) against AChE than rivastigmine” value in test [1] (compared with rivastigmine) is reported as 4.4 ×. In test [1] (selectivity for AChE), the “BChE/AChE Ratio (selectivity index, IC50 for BChE/IC50 for AChE)” value was 4.2. In test [2] (3l vs. 3t), the “fold boost of BChE inhibitory potency, switch of oxygen to sulfur” value is listed as 4.2 ×. Also, the “reversibility of AChE inhibition” value in test [3] (1, 10 and 100 µM, residual activity followed 5–1450 min) is “reversible AChE inhibitor”. For the same compound, the “time at which almost maximum inhibition is reached” value in test [3] (two lower concentrations (1 and 10 µM)) came out at 5 min. Further, the type of inhibition entry in test [4] was “mixed type of inhibition”.
